Reference: the NIST ThermoML archive (doi:10.1021/acs.jced.7b00939)
“And” between values parts separate entries of the source, which are not always exact repeats. Identical values can stand only once.

Settings: Liquid, Vibrating tube method

CCCCC(CC)COC(=O)c1ccc(C(=O)OCC(CC)CCCC)c(C(=O)OCC(CC)CCCC)c1 (stereo unspecified) [tris(2-ethylhexyl) trimellitate]
Settings | mass density
328.15 K, 5110 kPa | 965.697 kg/m3
328.15 K, 10110 kPa | 968.884 kg/m3
328.15 K, 20120 kPa | 974.939 kg/m3
328.15 K, 30110 kPa | 980.701 kg/m3
333.15 K, 100 kPa | 959.014 kg/m3 [middle of 4 runs]
353.15 K, 100 kPa | 944.616 kg/m3 [middle of 4 runs]
363.15 K, 100 kPa | 937.285 kg/m3 and 937.369 kg/m3
363.15 K, 5110 kPa | 941.043 kg/m3
363.15 K, 10110 kPa | 944.715 kg/m3
363.15 K, 20120 kPa | 951.677 kg/m3
363.15 K, 30130 kPa | 958.176 kg/m3
363.15 K, 40130 kPa | 964.291 kg/m3
363.15 K, 50140 kPa | 969.983 kg/m3
373.15 K, 100 kPa | 930.229 kg/m3 and 930.252 kg/m3
383.15 K, 100 kPa | 923.009 kg/m3 and 923.041 kg/m3 and 923.028 kg/m3
388.15 K, 100 kPa | 919.579 kg/m3
388.15 K, 2640 kPa | 921.672 kg/m3
388.15 K, 5170 kPa | 923.804 kg/m3
388.15 K, 7730 kPa | 925.892 kg/m3
388.15 K, 10170 kPa | 927.866 kg/m3
388.15 K, 15260 kPa | 931.875 kg/m3
388.15 K, 20280 kPa | 935.659 kg/m3
388.15 K, 30390 kPa | 942.915 kg/m3
388.15 K, 40500 kPa | 949.605 kg/m3
388.15 K, 50560 kPa | 955.87 kg/m3
388.15 K, 68700 kPa | 966.125 kg/m3
393.15 K, 100 kPa | 915.76 kg/m3 and 915.768 kg/m3
403.15 K, 100 kPa | 908.475 kg/m3 and 908.487 kg/m3 and 908.679 kg/m3
403.15 K, 2640 kPa | 910.921 kg/m3
403.15 K, 5110 kPa | 912.879 kg/m3
403.15 K, 5170 kPa | 913.199 kg/m3
403.15 K, 7690 kPa | 915.392 kg/m3
403.15 K, 10110 kPa | 917.229 kg/m3
403.15 K, 10220 kPa | 917.585 kg/m3
403.15 K, 15270 kPa | 921.805 kg/m3
403.15 K, 20110 kPa | 925.405 kg/m3
403.15 K, 20320 kPa | 925.852 kg/m3
403.15 K, 30120 kPa | 932.929 kg/m3
403.15 K, 30380 kPa | 933.471 kg/m3
403.15 K, 40120 kPa | 939.962 kg/m3
403.15 K, 40430 kPa | 940.482 kg/m3
403.15 K, 50130 kPa | 946.45 kg/m3
403.15 K, 50540 kPa | 947.085 kg/m3
403.15 K, 68140 kPa | 957.148 kg/m3
403.15 K, 68470 kPa | 957.846 kg/m3
413.15 K, 100 kPa | 901.142 kg/m3 and 901.152 kg/m3
423.15 K, 100 kPa | 893.777 kg/m3 and 893.78 kg/m3
423.15 K, 2590 kPa | 896.162 kg/m3
423.15 K, 5100 kPa | 898.654 kg/m3
423.15 K, 7590 kPa | 901.053 kg/m3
423.15 K, 10100 kPa | 903.407 kg/m3
423.15 K, 20110 kPa | 912.286 kg/m3
423.15 K, 30120 kPa | 920.442 kg/m3
423.15 K, 40120 kPa | 927.911 kg/m3
423.15 K, 50120 kPa | 934.915 kg/m3
423.15 K, 68140 kPa | 946.287 kg/m3
